Data: PubChem BioAssay (NCI)
Several values for one entry are separate records, joined by “and”; a condition that tells them apart may be missing. Equal values may be shown once.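 Five compound concentrations were applied to cells in 96-well plates for 48 hours; endpoints were derived by simple linear interpolation of the resulting dose-response curve. GI50 marks 50% less growth. The concentration for full growth arrest is given as TGI.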

Assays:
Assay in all cases: growth of human tumour cells (NCI), 48 h
TK-10 renal = system: TK-10 renal
IGROV1 ovarian = system: IGROV1 ovarian
BT-549 breast = system: BT-549 breast
HS 578T breast = system: HS 578T breast
MDA-MB-435 = system: MDA-MB-435
NCI-H522 lung = system: NCI-H522 lung
PC-3 prostate = system: PC-3 prostate
RXF 393 renal = system: RXF 393 renal
LOX IMVI melanoma = system: LOX IMVI melanoma
U251 CNS = system: U251 CNS

SMILES: CC(=O)N1CCN(CCOc2ccc(C3CCN(C4=Nn5c(nnc5C(F)(F)F)CC4)CC3)cc2)CC1
- GI50 (TK-10 renal): 7.31 µM
- TGI (TK-10 renal): > 100 µM
- GI50 (IGROV1 ovarian): 17.4 µM
- TGI (IGROV1 ovarian): > 100 µM
- GI50 (BT-549 breast): 26.2 µM
- TGI (BT-549 breast): > 100 µM
- GI50 (HS 578T breast): 5.43 µM
- TGI (HS 578T breast): > 100 µM
- GI50 (MDA-MB-435): 10.2 µM
- TGI (MDA-MB-435): > 100 µM
- GI50 (NCI-H522 lung): 5 µM
- TGI (NCI-H522 lung): > 100 µM
- GI50 (PC-3 prostate): 7.87 µM
- TGI (PC-3 prostate): > 100 µM
- GI50 (RXF 393 renal): 19.4 µM
- TGI (RXF 393 renal): > 66 µM
- GI50 (LOX IMVI melanoma): 11.4 µM
- TGI (LOX IMVI melanoma): > 100 µM
- GI50 (U251 CNS): 47.9 µM
- TGI (U251 CNS): > 100 µM

SMILES: Cc1cc(O)cc2c1c(=O)c1ccccc1n2C
- TGI (TK-10 renal): > 100 µM
- TGI (IGROV1 ovarian): > 100 µM
- TGI (BT-549 breast): > 100 µM
- TGI (HS 578T breast): > 100 µM
- TGI (MDA-MB-435): > 100 µM
- TGI (NCI-H522 lung): > 100 µM
- TGI (PC-3 prostate): > 100 µM
- TGI (RXF 393 renal): > 100 µM
- TGI (LOX IMVI melanoma): > 100 µM
- TGI (U251 CNS): > 100 µM

SMILES: N#Cc1c2c(c(-c3cccs3)n(C3OC(CO)C(O)C(O)C3O)c1=S)CCc1ccccc1-2 (configuration not stated)
- TGI (TK-10 renal): > 100 µM
- TGI (IGROV1 ovarian): > 100 µM
- TGI (BT-549 breast): > 100 µM
- TGI (HS 578T breast): > 100 µM
- TGI (MDA-MB-435): > 100 µM
- GI50 (NCI-H522 lung): 12.8 µM and 3.62 µM
- TGI (NCI-H522 lung): > 100 µM
- TGI (PC-3 prostate): > 100 µM
- TGI (RXF 393 renal): > 100 µM
- TGI (LOX IMVI melanoma): > 100 µM
- TGI (U251 CNS): > 100 µM

SMILES: COc1cc(C2c3cc4c(cc3[C@@H](Nc3ccc(N)cc3)C3COC(=O)[C@H]23)OCO4)cc(OC)c1O (some centres not stated)
- TGI (TK-10 renal): 23.7 µM
- TGI (IGROV1 ovarian): 16.4 µM
- TGI (BT-549 breast): 8.5 µM
- TGI (MDA-MB-435): 29.6 µM
- GI50 (NCI-H522 lung): 0.789 µM
- TGI (NCI-H522 lung): 6.57 µM
- TGI (PC-3 prostate): 16.5 µM
- TGI (RXF 393 renal): 13.2 µM
- TGI (LOX IMVI melanoma): 6.48 µM
- TGI (U251 CNS): 4.2 µM

SMILES: Cc1nnc(-c2ccc(-c3nc4ccccc4o3)cc2)o1
- GI50 (TK-10 renal): > 100 µM
- TGI (TK-10 renal): > 100 µM
- GI50 (IGROV1 ovarian): > 100 µM
- TGI (IGROV1 ovarian): > 100 µM
- GI50 (BT-549 breast): 65.5 µM
- TGI (BT-549 breast): > 100 µM
- GI50 (HS 578T breast): 95.1 µM
- TGI (HS 578T breast): > 100 µM
- GI50 (MDA-MB-435): > 100 µM
- TGI (MDA-MB-435): > 100 µM
- GI50 (NCI-H522 lung): > 100 µM
- TGI (NCI-H522 lung): > 100 µM
- GI50 (PC-3 prostate): 34.7 µM
- TGI (PC-3 prostate): > 100 µM
- GI50 (LOX IMVI melanoma): > 100 µM
- TGI (LOX IMVI melanoma): > 100 µM
- GI50 (U251 CNS): 16.4 µM
- TGI (U251 CNS): 34.8 µM

SMILES: C#CCN(Cc1nc2cc(C(F)(F)F)ccc2nc1-c1ccccc1)c1ccc(F)c(F)c1
- GI50 (TK-10 renal): > 100 µM
- TGI (TK-10 renal): > 100 µM
- GI50 (IGROV1 ovarian): 68.1 µM
- TGI (IGROV1 ovarian): > 100 µM
- GI50 (BT-549 breast): 53.1 µM
- TGI (BT-549 breast): > 100 µM
- GI50 (HS 578T breast): 45.5 µM
- TGI (HS 578T breast): > 100 µM
- GI50 (MDA-MB-435): 37.8 µM
- TGI (MDA-MB-435): > 100 µM
- GI50 (NCI-H522 lung): 27.5 µM
- TGI (NCI-H522 lung): > 100 µM
- GI50 (PC-3 prostate): 37.6 µM
- TGI (PC-3 prostate): > 100 µM
- GI50 (RXF 393 renal): 22.9 µM
- TGI (RXF 393 renal): 92.5 µM
- GI50 (LOX IMVI melanoma): 42 µM
- TGI (LOX IMVI melanoma): > 100 µM
- GI50 (U251 CNS): 66.5 µM
- TGI (U251 CNS): > 100 µM

SMILES: CCOC(=O)/C(C#N)=C/Nc1ccc(-c2nc3ccccc3[nH]2)cc1
- GI50 (TK-10 renal): 16.8 µM
- TGI (TK-10 renal): 54.2 µM
- GI50 (IGROV1 ovarian): 22.7 µM
- TGI (IGROV1 ovarian): > 100 µM
- GI50 (BT-549 breast): 34.1 µM
- TGI (BT-549 breast): 85.5 µM
- GI50 (HS 578T breast): 24.3 µM
- TGI (HS 578T breast): 79.5 µM
- GI50 (MDA-MB-435): 33.8 µM
- TGI (MDA-MB-435): > 100 µM
- GI50 (NCI-H522 lung): 24 µM
- TGI (NCI-H522 lung): > 100 µM
- GI50 (PC-3 prostate): 29.8 µM
- TGI (PC-3 prostate): > 100 µM
- GI50 (RXF 393 renal): 76.7 µM
- TGI (RXF 393 renal): > 100 µM
- GI50 (LOX IMVI melanoma): 19.4 µM
- TGI (LOX IMVI melanoma): 41.5 µM
- GI50 (U251 CNS): 23.2 µM
- TGI (U251 CNS): 65.9 µM

SMILES: NS(=O)(=O)c1ccc(NC(=O)Nc2ccccc2F)cc1
- TGI (TK-10 renal): > 100 µM
- TGI (IGROV1 ovarian): > 100 µM
- TGI (BT-549 breast): > 100 µM
- TGI (HS 578T breast): > 100 µM
- TGI (MDA-MB-435): > 100 µM
- TGI (NCI-H522 lung): > 100 µM
- TGI (PC-3 prostate): > 100 µM
- TGI (RXF 393 renal): > 100 µM
- TGI (LOX IMVI melanoma): > 100 µM
- TGI (U251 CNS): > 100 µM

SMILES: Nc1c(C(=O)Nc2cccc(Br)c2)sc2nc3c(cc12)C(O)CCC3 (configuration not stated)
- GI50 (TK-10 renal): 14.2 µM
- TGI (TK-10 renal): 51.6 µM
- GI50 (IGROV1 ovarian): 0.833 µM
- TGI (IGROV1 ovarian): > 70.3 µM
- GI50 (BT-549 breast): 0.972 µM
- TGI (BT-549 breast): > 75.3 µM
- GI50 (HS 578T breast): 0.395 µM
- TGI (HS 578T breast): 12.7 µM
- GI50 (MDA-MB-435): 0.115 µM
- TGI (MDA-MB-435): 0.35 µM
- GI50 (NCI-H522 lung): 0.412 µM
- TGI (NCI-H522 lung): > 67.6 µM
- GI50 (PC-3 prostate): 0.349 µM
- TGI (PC-3 prostate): 24.4 µM
- GI50 (RXF 393 renal): 0.361 µM
- TGI (RXF 393 renal): 6.26 µM
- GI50 (LOX IMVI melanoma): 0.726 µM
- TGI (LOX IMVI melanoma): > 85.1 µM
- GI50 (U251 CNS): 0.487 µM
- TGI (U251 CNS): 20.4 µM

SMILES: Cc1sc2ncn(Cc3ccc(Cl)c(Cl)c3)c(=O)c2c1C
- GI50 (TK-10 renal): 1.81 µM
- TGI (TK-10 renal): 7.91 µM
- GI50 (IGROV1 ovarian): 9.28 µM
- TGI (IGROV1 ovarian): 42.8 µM
- GI50 (BT-549 breast): 58.9 µM
- TGI (BT-549 breast): > 100 µM
- GI50 (HS 578T breast): 35.2 µM
- TGI (HS 578T breast): > 100 µM
- GI50 (MDA-MB-435): 8.72 µM
- TGI (MDA-MB-435): > 100 µM
- GI50 (NCI-H522 lung): 13.1 µM
- TGI (NCI-H522 lung): 73.9 µM
- GI50 (PC-3 prostate): 20.1 µM
- TGI (PC-3 prostate): > 100 µM
- GI50 (RXF 393 renal): > 100 µM
- TGI (RXF 393 renal): > 100 µM
- GI50 (LOX IMVI melanoma): 25.8 µM
- TGI (LOX IMVI melanoma): > 100 µM
- GI50 (U251 CNS): 27.6 µM
- TGI (U251 CNS): > 100 µM

SMILES: COc1cc(-c2nn(-c3ccc(NC(=O)c4cc(Cl)cc(Cl)c4)cc3)cc2-c2ccncc2)ccc1Cl
- GI50 (TK-10 renal): > 100 µM
- TGI (TK-10 renal): > 100 µM
- GI50 (IGROV1 ovarian): > 100 µM
- TGI (IGROV1 ovarian): > 100 µM
- GI50 (BT-549 breast): > 100 µM
- TGI (BT-549 breast): > 100 µM
- GI50 (HS 578T breast): 3.29 µM
- TGI (HS 578T breast): > 100 µM
- GI50 (MDA-MB-435): > 100 µM
- TGI (MDA-MB-435): > 100 µM
- GI50 (PC-3 prostate): 42 µM
- TGI (PC-3 prostate): > 100 µM
- GI50 (RXF 393 renal): 2.14 µM
- TGI (RXF 393 renal): > 100 µM
- GI50 (LOX IMVI melanoma): 3.09 µM
- TGI (LOX IMVI melanoma): > 100 µM
- GI50 (U251 CNS): 6.23 µM
- TGI (U251 CNS): > 100 µM
